According to patent US9598386B2, “Immunomodulatory compounds” (University of Strathclyde, priority 2012, dated 2017):
Counter-ions that a name gives are not always drawn.

Legend:
[1] = system: mouse model of asthma, ovalbumin-induced airway hypersensitivity; test: Ovalbumin-induced airway hypersensitivity (OAH) mouse model of asthma; type: in vivo; conditions: for lung pathology (H & E staining of lung tissue) / eosinophil influx into the lungs (BALF): prophylactic treatment; for lung pathology (H & E staining of lung tissue): FIG. 3A; for eosinophil influx into the lungs (BALF): FIG. 3B; for neutrophil influx into the lungs (BALF): therapeutic treatment, FIG. 3C
Method: As a consequence of the mast cell findings S3 and […] were tested in a mouse model of asthma, ovalbumin-induced airway hypersensitivity (OAH). As can be shown in FIG. 3, both sulfones are able to inhibit infiltration of disease-causing eosinophils into the lungs and also overall lung pathology.

[2] = system: bone marrow-derived mast cells (BMM); test: Mast cell cytokine release after FcεRI crosslinking; type: cell-based; conditions: pre-treated during IgE sensitisation, 24 h after FcεRI crosslinking; FIG. 2
Method: (§1) Peritoneal-derived mast cells (PDMC; panels A & D) or bone marrow-derived mast cells (BMM; B, C, E & F) were pre-treated with the indicated concentrations of S3 and S5 (μg/ml) during the IgE sensitisation phase and then degranulation measured 1 h (A & D) following crosslinking of the IgE-bound FcεRI receptors (XL) or not (Basal). Alternatively TNFα (B & E) or IL-6 (C & F) release was measured 24 h following FcεRI crosslinking. Data are presented as means±SD where n=3 and analysis is by 1-way ANOVA and Newman-Keuls post test where ***p<0.001.
(§2) S3 and S5 were also tested for their effects on another immune system cell type, the mast cell. Similar to macrophages, activation of mast cells for example via the high-affinity receptor for IgE results in degranulation, resulting in release of inflammatory mediators, and secretion of various cytokines.

[3] = system: Peritoneal-derived mast cells (PDMC); test: Mast cell degranulation after FcεRI crosslinking; type: cell-based; conditions: pre-treated during IgE sensitisation, measured 1 h after FcεRI crosslinking; FIG. 2
Method: as §1, §2

[4] = system: DBA/1 mice undergoing CIA; test: Collagen-induced arthritis (CIA) mouse model of rheumatoid arthritis; type: in vivo; conditions: prophylactic treatment, 1 μg/dose at d-2, d0 and d21, versus PBS; FIG. 1
Method: DBA/1 mice undergoing CIA (PBS) were treated with SMAs S3 (1 μg/dose; S3-1) and S5 (1 μg/dose; S5-1) at d-2, d0 and d21 and monitored every second day for (A) articular score; (B) paw swelling; (C) incidence of CIA (articular score>2) and (D) incidence of severe pathology (articular score >4). Data in A & B are presented as mean values±SEM where PBS, n=28, S3, n=14 and S5, n=13 individual mice, except at d33 and d35 where PBS, n=14, S3, n=7 and S5, n=7 individual mice, and analysis was by Mann-Whitney test and *p<0.05, **p<0.01 and ***p<0.001 where blue * and black * represent PBS versus S3-1 and S5-1, respectively.

Row | Structure (SMILES) | melting point [°C] | other results
1 | Cc1ccc(CS(=O)(=O)CCCN2CCOCC2)cc1 [S19, 4-{3-[(4-methylbenzyl)sulfonyl]propyl}morpholine] | 92 to 93 | –
2 | Cc1ccc(CS(=O)(=O)CCCN2CCCC2)cc1 [S20, 1-{3-[(4-Methylbenzyl)sulfonyl]propyl}-pyrrolidine] | 84 to 86 | –
3 | Cc1ccc(CS(=O)(=O)CC[N+]2(C)CCCC2)cc1.[I-] [S8, 1-Methyl-1-{2-[(4-methylbenzyl)sulfonyl]ethyl}pyrrolidinium iodide] | 214 to 216 | –
4 | Cc1ccc(CS(=O)(=O)CCN2CCCC2)cc1 [S7, 1-(2-[(4-Methylbenzyl)sulfonyl]ethyl)pyrrolidine] | 84 to 86 | –
5 | O=S(=O)(CCN1CCCC1)Cc1ccc(Br)cc1 [S9, 1-{2-[(4-bromobenzyl}sulfonyl]ethyl}pyrrolidine] | 90 to 92 | –
6 | Cc1ccc(CS(=O)(=O)CCN(C)C)cc1 [S4, N,N-Di methyl-2-[(4-methylbenzyl)sulfonyl]ethanamine] | 68 to 70 | –
7 | CN(C)CCS(=O)(=O)Cc1ccc(Br)cc1 [S3, N-{2-[(4-Bromobenzyl)sulfonyl]ethyl}-N,N-dimethylamine] | 58 to 60 | lung pathology (H & E staining of lung tissue) [1]: inhibits lung pathology; eosinophil influx into the lungs (BALF) [1]: inhibits; neutrophil influx into the lungs (BALF) [1]: inhibits neutrophil influx; secretion of IL-6 by mast cells [2]: inhibiting secretion; secretion of TNF-α by mast cells [2]: inhibiting secretion; mast cell degranulation [3]: suppressing degranulation; development of arthritis (articular score, paw swelling, incidence) [4]: significantly suppressed the development of arthritis
8 | Cc1ccc(CS(=O)(=O)CC[N+](C)(C)C)cc1.[I-] [S5, N,N,N-trimethyl-2-[(4-methylbenzyl)sulfonyl]ethanaminium iodide] | 212 to 214 | lung pathology (H & E staining of lung tissue) [1]: inhibits lung pathology; eosinophil influx into the lungs (BALF) [1]: inhibits; neutrophil influx into the lungs (BALF) [1]: inhibits neutrophil influx; secretion of IL-6 by mast cells [2]: inhibiting secretion; secretion of TNF-α by mast cells [2]: inhibiting secretion; mast cell degranulation [3]: suppressing degranulation; development of arthritis (articular score, paw swelling, incidence) [4]: significantly suppressed the development of arthritis
9 | Cc1ccc(CS(=O)(=O)CCC[N+]2(C)CCOCC2)cc1.[I-] [S22, 4-methyl-4-{3-[(4-methylbenzyl)sulfonyl]propyl}morpholin-4-ium iodide] | 181 to 183 | –
10 | C[N+](C)(C)CCS(=O)(=O)Cc1ccc(Br)cc1 (as salt: methane sulfonate) [S1, N,N.N-trimethyl-2-1(4-bromobenzyl)sulfonyl{ethanaminiummethane sulfonate] | 187 to 188 | –
11 | C[N+]1(CCS(=O)(=O)Cc2ccc(Br)cc2)CCCC1.[I-] [S10, 1-Methyl-1-{2-[(4-bromobenzyl)sulfonyllethyl]}pyrrolidinium iodide] | 196 to 198 | –

The next lines start with results.

Row | melting point [°C] | Structure (SMILES) | other results
12 | 76 to 78 | O=S(=O)(CCN1CCCC1)Cc1ccc(F)cc1 [S29, 1-{2-[(4-Fluorobenzyl)sulfonyl]ethyl}pyrrolidine] | –
13 | 72 to 74 | O=S(=O)(CCN1CCOCC1)Cc1ccc(F)cc1 [S28, 4-{2-[(4-Fluorobenzyl)sulfonyl]ethyl}morpholine] | –
14 | 74 to 76 | O=S(=O)(CCN1CCOCC1)Cc1cccc(F)c1 [S25, 4-{2-[(3-Fluorobenzyl)sulfonyl]ethyl}morpholine] | –
15 | 50 to 52 | CN(C)CCS(=O)(=O)Cc1ccc(F)cc1 [S27, N-{2-[(4-Fluorobenzyl)sulfonyl]ethyl}-N,N-dimethylamine] | –
16 | 66 to 68 | O=S(=O)(CCN1CCCC1)Cc1cccc(F)c1 [S26, 1-{2-[(3-Fluorobenzyl)sulfonyl]ethyl}pyrrolidine] | –
